Measurements from patent publication US9308284B2, “Formulations of fluorinated stilbene suitable for PET imaging” (PIRAMAL IMAGING SA, priority 2011, dated 2016).

Tests used:
[1] = Stability of Formulation 1 comprising HCl salt of Compound 1 for 12 hours at room temperature; type: physicochemical
Procedure: The term “concentration interval of compound 2” as used herein is corrected for the decay of fluorine-18.
Formulation 1 was prepared containing 3 μg/mL of Compound 1 (according to 3.3 μg/mL HCl salt of compound 1). The assay was analysed after preparation and after 12 hours storage according to the short shelf life of PET imaging tracer, typically expected between 6 and 10 hours. Eight individual batches were prepared and analysed for assay.
Table 1 indicates the results of stability testing after 12 hours of n=8 individually manufactured batches.
Minisart HY 0.2 μm is a sterile filter with PTFE hydrophobic membrane.

[2] = Hydrophobic filters and adsorption: Compound 1 concentration before and after sterile filtration of 10 mL Formulation 1; type: physicochemical; settings: for Filtrate (%) / Adsorption: n=6
Procedure: Formulation 1 comprising compound 1 was prepared as indicated above and filtered using selected sterile filters. Adsorption of compound 1 was determined by measuring the concentration of Compound 1 before and after filtration of 10 mL of Formulation 1 and subsequent calculation of the adsorption. Table 2 indicates the results of adsorption experiments using different filters.

[3] = Formulation 1, Pall HP2002 0.2 μm, Versapor R hydrophobic

Visual Inspection ([1]; Formulation 1, 3 μg/mL Compound 1 (3.3 μg/mL HCl salt), 12 h storage at RT, n=8 batches): clear
ΔFiltration in % ([1]; Formulation 1, 12 h at RT, n=8, Minisart HY 0.2 μm): 1.9%
Content of Compound 1 in % after 12 h, after filtration (Minisart HY 0.2 μm) ([1]; Formulation 1, 12 h at RT, n=8, PTFE sterile filter, relative to concentration after preparation): 97.0%
Content of Compound 1 in % after 12 h, prior filtration ([1]; Formulation 1, 12 h at RT, n=8, relative to concentration after preparation (2.97 to 3.14 μg/mL)): 98.9%
Chemical stability in the formulation ([1]; Formulation 1, 12 hours, RT): chemically stable
Filtrate (%) ([2]; Formulation 1, Millex GV 0.22 μm (Millipore, SLGV033RS), PVDF): 94.0 ± 0.7%
Adsorption ([2]; Formulation 1, Millex GV 0.22 μm (SLGV033RS), PVDF): 6.0%
Adsorption ([2]; Formulation 1, Minisart HY 0.2 μm (16596-HYK), PTFE): 1.2%
Filtrate (%) ([2]; Formulation 1, Minisart HY 0.2 μm (Sartorius Stedim, 16596-HYK), PTFE): 98.8 ± 0.6%
Adsorption ([2]; Formulation 1, Minisart High Flow 0.2 μm (16532), polyethersulfone): 36.1%
Filtrate (%) ([2]; Formulation 1, Minisart High Flow 0.2 μm (Sartorius Stedim, 16532), polyethersulfone): 63.9 ± 1.8%
Adsorption ([2]; Formulation 1, Minisart SRP25 0.2 μm (17575), PTFE): 0.6%
Filtrate (%) ([2]; Formulation 1, Minisart SRP25 0.2 μm (Sartorius Stedim, 17575), PTFE): 99.4 ± 0.3%
Adsorption [2, 3]: 14.2%
Filtrate (%) [2, 3]: 85.8 ± 0.3%
Amount of compound 1 adsorbed onto the filter material ([2]; filter units containing PTFE and PVDF): low amount
SMILES: CNc1ccc(/C=C/c2ccc(OCCOCCOCCF)cc2)cc1 [Compound 1]
